What was measured:
HSC82 [1] = target: T1, HSC82 (Saccharomyces cerevisiae, UniProt P15108, A41S); test: fluorescence polarization competition with GA-FITC on purified protein; assay type: binding
T1 construct: N-terminal domain, C-terminal hexahistidine tag

HSC82 [2] = target: T2, HSC82 (Saccharomyces cerevisiae, UniProt P15108); test: as above; assay type: binding
T2 construct: N-terminal domain, C-terminal hexahistidine tag

SMILES	fluorescence polarization competition with GA-FITC on purified protein (HSC82 [1])	fluorescence polarization competition with GA-FITC on purified protein (HSC82 [2])
COC1=C2C[C@@H](C)C[C@H](OC)[C@H](O)[C@@H](C)/C=C(\C)[C@H](OC(N)=O)[C@@H](OC)/C=C\C=C(/C)C(=O)NC(=CC1=O)C2=O [Geldanamycin]	GA binding was unaffected by the A41S substitution in yeast HSC82	GA binding was unaffected by the A41S substitution in yeast HSC82
CCNC(=O)c1noc(-c2cc(C(C)C)c(O)cc2O)c1-c1ccc(CN2CCOCC2)cc1 [AUY-922]	A41S reduced AUY-922 binding affinity in yeast HSC82, as evidenced by a rightward shift in the competition curve	A41S reduced AUY-922 binding affinity in yeast HSC82, as evidenced by a rightward shift in the competition curve
